# Data as given in patent US10538555B2, “Macrocyclic inhibitors of the PD-1/PD-L1 and CD80(B7-1)/PD-L1 protein/protein interactions” (BRISTOL-MYERS SQUIBB COMPANY, priority 2014, dated 2020).
# Where a SMILES comes first, the peptide text is derived from it. Bridges are numbered along the chain shown (N, C = ends). [ ]: non-standard residue; d: D form. ξ: configuration not given here. Phe(3,4,5-F3) = N[C@@H](Cc1cc(F)c(F)c(F)c1)C(=O)O; d(cisHyp) = O=C(O)[C@H]1C[C@@H](O)CN1; Bta = N[C@@H](Cc1csc2ccccc12)C(=O)O; Hyp = O=C(O)[C@@H]1C[C@@H](O)CN1; NMeF = CN[C@@H](Cc1ccccc1)C(=O)O; dHyp = O=C(O)[C@H]1C[C@H](O)CN1; NMeNle = CCCC[C@H](NC)C(=O)O; hSer = N[C@@H](CCO)C(=O)O; NMeA = CN[C@@H](C)C(=O)O; Orn = NCCC[C@H](N)C(=O)O; ξC = NC(CS)C(=O)O
# Target: T1, Human PD-L1/PD-1 (Homo sapiens, UniProt Q9NZQ7)
# T1 construct: TVMV protease cleavage site (C); made in house; host or cells: HEK293T cells
# T1 sequence (Q9NZQ7 with tags, fused parts or gaps): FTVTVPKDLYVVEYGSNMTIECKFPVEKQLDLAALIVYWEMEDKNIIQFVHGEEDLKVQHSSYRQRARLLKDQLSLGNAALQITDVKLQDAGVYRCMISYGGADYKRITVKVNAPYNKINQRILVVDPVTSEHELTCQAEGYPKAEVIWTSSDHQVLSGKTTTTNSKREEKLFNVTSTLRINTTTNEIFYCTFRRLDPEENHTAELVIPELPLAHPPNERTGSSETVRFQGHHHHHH
# Assay: HTRF Human PD-L1/PD-1 binding assay (PD-1-Ig/PD-L1-His)
# Details: PD-L1-His 10 nM, PD-1-Ig 20 nM; class symbol; read-out: HTRF Human PD-L1/PD-1 Binding Assay IC50 Range
# Procedure, shortened: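 HTRF competition using HEK293T-expressed human PD-1(25-167)-Ig at 20 nM and PD-L1(18-239)-His at 10 nM, compound incubated first with PD-L1 for 15 min, then with PD-1 for 15 min. Signal read as 665/620 nm ratio 30 min after adding Eu anti-Ig and APC anti-His antibodies.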
row,IC50 [nM],Structure (SMILES)
1,1 to 9.9,"CCCC[C@H]1C(=O)N2C[C@H](O)C[C@@H]2C(=O)N[C@@H](CC(=O)O)C(=O)N[C@@H](C(C)C)C(=O)N(C)[C@@H](Cc2ccccc2)C(=O)N[C@@H](Cc2ccc(O)cc2)C(=O)N2C[C@@H](O)C[C@@H]2C(=O)N[C@@H](Cc2c[nH]c3ccccc23)C(=O)N[C@@H](Cc2ccc(O)cc2)C(=O)N[C@@H](CC(C)C)C(=O)N[C@H](C(=O)NCC(N)=O)CSCC(=O)N[C@@H](Cc2cc(F)c(F)c(F)c2)C(=O)N(C)[C@@H](Cc2ccccc2)C(=O)N1C [Example 9371] ({CH2CO}-[Phe(3,4,5-F3)][NMeF][NMeNle][d(cisHyp)]DV[NMeF]Y[dHyp]WYLCG-NH2; thioether N-13)"
2,1 to 9.9,"CCCC[C@H]1C(=O)N2C[C@H](O)C[C@@H]2C(=O)N[C@@H](CC(=O)O)C(=O)N[C@@H](C(C)C)C(=O)N(C)[C@@H](Cc2ccccc2)C(=O)N[C@@H](Cc2ccc(O)cc2)C(=O)N2C[C@@H](O)C[C@@H]2C(=O)N[C@@H](Cc2c[nH]c3ccccc23)C(=O)N[C@@H](Cc2ccc(O)cc2)C(=O)N[C@@H](CCCN)C(=O)N[C@H](C(=O)NCC(N)=O)CSCC(=O)N[C@@H](Cc2cc(F)c(F)c(F)c2)C(=O)N(C)[C@@H](Cc2ccccc2)C(=O)N1C [Example 9372] ({CH2CO}-[Phe(3,4,5-F3)][NMeF][NMeNle][d(cisHyp)]DV[NMeF]Y[dHyp]WY[Orn]CG-NH2; thioether N-13)"
3,10 to 99.9,"CCCC[C@H]1C(=O)N2C[C@H](O)C[C@@H]2C(=O)N[C@@H](CC(=O)O)C(=O)N[C@@H](C(C)C)C(=O)N(C)[C@@H](Cc2ccccc2)C(=O)N[C@@H](CCC(=O)O)C(=O)N2C[C@@H](O)C[C@@H]2C(=O)N[C@@H](Cc2c[nH]c3ccccc23)C(=O)N[C@@H](Cc2ccc(O)cc2)C(=O)N[C@@H](CC(C)C)C(=O)N[C@H](C(=O)NCC(N)=O)CSCC(=O)N[C@@H](Cc2cc(F)c(F)c(F)c2)C(=O)N(C)[C@@H](Cc2ccccc2)C(=O)N1C [Example 9373] ({CH2CO}-[Phe(3,4,5-F3)][NMeF][NMeNle][d(cisHyp)]DV[NMeF]E[dHyp]WYLCG-NH2; thioether N-13)"
4,10 to 99.9,"CCCC[C@H]1C(=O)N2C[C@H](O)C[C@@H]2C(=O)N[C@@H](CC(=O)O)C(=O)N[C@@H](C(C)C)C(=O)N(C)[C@@H](Cc2ccccc2)C(=O)N[C@@H](CCC(=O)O)C(=O)N2C[C@@H](O)C[C@@H]2C(=O)N[C@@H](Cc2c[nH]c3ccccc23)C(=O)N[C@@H](Cc2ccc(O)cc2)C(=O)N[C@@H](CCCN)C(=O)N[C@H](C(=O)NCC(N)=O)CSCC(=O)N[C@@H](Cc2cc(F)c(F)c(F)c2)C(=O)N(C)[C@@H](Cc2ccccc2)C(=O)N1C [Example 9374] ({CH2CO}-[Phe(3,4,5-F3)][NMeF][NMeNle][d(cisHyp)]DV[NMeF]E[dHyp]WY[Orn]CG-NH2; thioether N-13)"
5,10 to 99.9,CCCC[C@H]1C(=O)N(C)[C@@H](CCCC)C(=O)N[C@@H](CCCNC(=N)N)C(=O)NC(C(=O)NCC(N)=O)CSCC(=O)N[C@@H](Cc2ccc(O)cc2)C(=O)N(C)[C@@H](C)C(=O)N[C@@H](CC(N)=O)C(=O)N2CCC[C@H]2C(=O)N[C@@H](CC(N)=O)C(=O)N[C@@H](CC(N)=O)C(=O)N2C[C@H](O)C[C@H]2C(=O)N[C@@H](Cc2c[nH]c3ccccc23)C(=O)N[C@@H](CO)C(=O)N[C@@H](Cc2csc3ccccc23)C(=O)N1C (stereo partly drawn) [Example 10012] ({CH2CO}-Y[NMeA]NPNN[Hyp]WS[Bta][NMeNle][NMeNle]R[ξC]G-NH2; thioether N-14)
6,10 to 99.9,CCCC[C@H]1C(=O)N(C)[C@@H](CCCC)C(=O)N[C@@H](CCCNC(=N)N)C(=O)NC(C(=O)NCC(N)=O)CSCC(=O)N[C@@H](Cc2ccc(O)cc2)C(=O)N(C)[C@@H](C)C(=O)N[C@@H](CC(N)=O)C(=O)N2CCC[C@H]2C(=O)N[C@@H](CC(N)=O)C(=O)N[C@@H](CC(N)=O)C(=O)N2C[C@H](O)C[C@H]2C(=O)N[C@@H](Cc2c[nH]c3ccccc23)C(=O)N[C@@H](CO)C(=O)N[C@@H](Cc2c[nH]c3ccccc23)C(=O)N1C (stereo partly drawn) [Example 10014] ({CH2CO}-Y[NMeA]NPNN[Hyp]WSW[NMeNle][NMeNle]R[ξC]G-NH2; thioether N-14)
7,10 to 99.9,CCCC[C@H]1C(=O)N(C)[C@@H](CCCC)C(=O)N[C@@H](CCCNC(=N)N)C(=O)NC(C(=O)NCC(N)=O)CSCC(=O)N[C@@H](Cc2ccc(O)cc2)C(=O)N(C)[C@@H](C)C(=O)N[C@@H](CC(N)=O)C(=O)N2CCC[C@H]2C(=O)N[C@@H](CO)C(=O)N[C@@H](CO)C(=O)N2C[C@H](O)C[C@H]2C(=O)N[C@@H](Cc2c[nH]c3ccccc23)C(=O)N[C@@H](CO)C(=O)N[C@@H](Cc2csc3ccccc23)C(=O)N1C (stereo partly drawn) [Example 10016] ({CH2CO}-Y[NMeA]NPSS[Hyp]WS[Bta][NMeNle][NMeNle]R[ξC]G-NH2; thioether N-14)
8,10 to 99.9,CCCC[C@H]1C(=O)N(C)[C@@H](CCCC)C(=O)N[C@@H](CCCNC(=N)N)C(=O)NC(C(=O)NCC(N)=O)CSCC(=O)N[C@@H](Cc2ccc(O)cc2)C(=O)N(C)[C@@H](C)C(=O)N[C@@H](CC(N)=O)C(=O)N2CCC[C@H]2C(=O)N[C@@H](CO)C(=O)N[C@@H](CO)C(=O)N2CCC[C@H]2C(=O)N[C@@H](Cc2c[nH]c3ccccc23)C(=O)N[C@@H](CO)C(=O)N[C@@H](Cc2c[nH]c3ccccc23)C(=O)N1C (stereo partly drawn) [Example 10017] ({CH2CO}-Y[NMeA]NPSSPWSW[NMeNle][NMeNle]R[ξC]G-NH2; thioether N-14)
9,10 to 99.9,CCCC[C@H]1C(=O)N(C)[C@@H](CCCC)C(=O)N[C@@H](CCCNC(=N)N)C(=O)NC(C(=O)NCC(N)=O)CSCC(=O)N[C@@H](Cc2ccc(O)cc2)C(=O)N(C)[C@@H](C)C(=O)N[C@@H](CC(N)=O)C(=O)N2CCC[C@H]2C(=O)N[C@@H](CO)C(=O)N[C@@H](CO)C(=O)N2C[C@H](O)C[C@H]2C(=O)N[C@@H](Cc2c[nH]c3ccccc23)C(=O)N[C@@H](CO)C(=O)N[C@@H](Cc2c[nH]c3ccccc23)C(=O)N1C (stereo partly drawn) [Example 10018] ({CH2CO}-Y[NMeA]NPSS[Hyp]WSW[NMeNle][NMeNle]R[ξC]G-NH2; thioether N-14)

# The next lines start with the molecule.
row,Structure (SMILES),IC50 [nM]
1,CCCC[C@H]1C(=O)N(C)[C@@H](CCCC)C(=O)N[C@@H](CCCNC(=N)N)C(=O)NC(C(=O)NCC(N)=O)CSCC(=O)N[C@@H](Cc2ccc(O)cc2)C(=O)N(C)[C@@H](C)C(=O)N[C@@H](CC(N)=O)C(=O)N2CCC[C@H]2C(=O)N[C@@H](CO)C(=O)N[C@@H](CO)C(=O)N2CCC[C@H]2C(=O)N[C@@H](Cc2c[nH]c3ccccc23)C(=O)N[C@@H](CO)C(=O)N[C@@H](Cc2csc3ccccc23)C(=O)N1C (stereo partly drawn) [Example 10015] ({CH2CO}-Y[NMeA]NPSSPWS[Bta][NMeNle][NMeNle]R[ξC]G-NH2; thioether N-14),1 to 9.9
2,CCCC[C@H]1C(=O)N(C)[C@@H](CCCC)C(=O)N[C@@H](CCCNC(=N)N)C(=O)NC(C(=O)NCC(N)=O)CSCC(=O)N[C@@H](Cc2ccc(O)cc2)C(=O)N(C)[C@@H](C)C(=O)N[C@@H](CC(N)=O)C(=O)N2CCC[C@H]2C(=O)N[C@@H](CCO)C(=O)N[C@@H](CCO)C(=O)N2CCC[C@H]2C(=O)N[C@@H](Cc2c[nH]c3ccccc23)C(=O)N[C@@H](CO)C(=O)N[C@@H](Cc2csc3ccccc23)C(=O)N1C (stereo partly drawn) [Example 10019] ({CH2CO}-Y[NMeA]NP[hSer][hSer]PWS[Bta][NMeNle][NMeNle]R[ξC]G-NH2; thioether N-14),10 to 99.9
3,CCCC[C@H]1C(=O)N(C)[C@@H](CCCC)C(=O)N[C@@H](CCCNC(=N)N)C(=O)NC(C(=O)NCC(N)=O)CSCC(=O)N[C@@H](Cc2ccc(O)cc2)C(=O)N(C)[C@@H](C)C(=O)N[C@@H](CC(N)=O)C(=O)N2CCC[C@H]2C(=O)N[C@@H](CCO)C(=O)N[C@@H](CCO)C(=O)N2CCC[C@H]2C(=O)N[C@@H](Cc2c[nH]c3ccccc23)C(=O)N[C@@H](CO)C(=O)N[C@@H](Cc2csc3ccccc23)C(=O)N1C (stereo partly drawn) [Example 10020] ({CH2CO}-Y[NMeA]NP[hSer][hSer]PWS[Bta][NMeNle][NMeNle]R[ξC]G-NH2; thioether N-14),1 to 9.9
4,CCCC[C@H]1C(=O)N(C)[C@@H](CCCC)C(=O)N[C@@H](CCCNC(=N)N)C(=O)NC(C(=O)NCC(N)=O)CSCC(=O)N[C@@H](Cc2ccc(O)cc2)C(=O)N(C)[C@@H](C)C(=O)N[C@@H](CC(N)=O)C(=O)N2CCC[C@H]2C(=O)N[C@@H](CCO)C(=O)N[C@@H](CCO)C(=O)N2CCC[C@H]2C(=O)N[C@@H](Cc2c[nH]c3ccccc23)C(=O)N[C@@H](CO)C(=O)N[C@@H](Cc2c[nH]c3ccccc23)C(=O)N1C (stereo partly drawn) [Example 10021] ({CH2CO}-Y[NMeA]NP[hSer][hSer]PWSW[NMeNle][NMeNle]R[ξC]G-NH2; thioether N-14),10 to 99.9

# Same assay, conditions: PD-L1-His 10 nM, PD-1-Ig 20 nM; read-out: HTRF Human PD-L1/PD-1 Binding Assay IC50
row,IC50 [nM],Structure (SMILES)
1,63.4,CCCC[C@H]1C(=O)N(C)[C@@H](CCCC)C(=O)N[C@@H](CCCNC(=N)N)C(=O)NC(C(=O)NCC(N)=O)CSCC(=O)N[C@@H](Cc2ccc(O)cc2)C(=O)N(C)[C@@H](C)C(=O)N[C@@H](CC(N)=O)C(=O)N2CCC[C@H]2C(=O)N[C@@H](CC(N)=O)C(=O)N[C@@H](CC(N)=O)C(=O)N2CCC[C@H]2C(=O)N[C@@H](Cc2c[nH]c3ccccc23)C(=O)N[C@@H](CO)C(=O)N[C@@H](Cc2c[nH]c3ccccc23)C(=O)N1C (stereo partly drawn) [Example 10013] ({CH2CO}-Y[NMeA]NPNNPWSW[NMeNle][NMeNle]R[ξC]G-NH2; thioether N-14)
2,134,CCCC[C@H]1C(=O)N(C)[C@@H](CCCC)C(=O)N[C@@H](CCCNC(=N)N)C(=O)NC(C(=O)NCC(N)=O)CSCC(=O)N[C@@H](Cc2ccc(O)cc2)C(=O)N(C)[C@@H](C)C(=O)N[C@@H](CC(N)=O)C(=O)N2CCC[C@H]2C(=O)N[C@@H](CCO)C(=O)N[C@@H](CO)C(=O)N2CCC[C@H]2C(=O)N[C@@H](Cc2c[nH]c3ccccc23)C(=O)N[C@@H](CO)C(=O)N[C@@H](Cc2csc3ccccc23)C(=O)N1C (stereo partly drawn) [Example 10022] ({CH2CO}-Y[NMeA]NP[hSer]SPWS[Bta][NMeNle][NMeNle]R[ξC]G-NH2; thioether N-14)
